Key:
HRP [1] = biological target: T1, HRP (Armoracia rusticana, UniProt P00433); assay: Inhibition of 1 mU of HRP activity using heavy metal salts and other compounds as stop reagents (ABTS, 96-well plate); settings: 1 mU HRP; for Absorbance at 405 nm: higher concentration of Table 1
T1 sequence (P00433 31-338): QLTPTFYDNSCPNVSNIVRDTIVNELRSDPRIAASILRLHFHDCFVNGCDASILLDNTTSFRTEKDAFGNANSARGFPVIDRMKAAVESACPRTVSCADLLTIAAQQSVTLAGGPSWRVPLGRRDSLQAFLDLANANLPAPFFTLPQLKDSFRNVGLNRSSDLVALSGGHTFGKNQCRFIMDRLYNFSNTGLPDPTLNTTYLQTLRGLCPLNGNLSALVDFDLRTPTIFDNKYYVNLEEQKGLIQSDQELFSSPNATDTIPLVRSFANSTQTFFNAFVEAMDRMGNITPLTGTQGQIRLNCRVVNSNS

[2] = test system: horseradish peroxidase (HRP); assay: Inhibition of ABTS turnover catalyzed by a low amount of HRP (sandwich ELISA, non-induced Jurkat cell lysate); assay type: biochemical, horseradish (Armoracia rusticana); settings: SDS 1% or 5%, high concentrations of oxalic acid or sulfuric acid
Protocol: FIG. 1, A and B: inhibition of ABTS turnover catalyzed by a low amount of HRP (detection of a low amount of mono- and oligosomes in Jurkat cells; further details are given in Example 1). The ordinate indicates absorbance. Groups of bars represent comparative measurements at time points after the addition of stop reagents as indicated: (‡)—control, ABTS solution incubated without HRP, no stop reagent added; (a) to (k)—ABTS solution incubated with HRP and subsequently mixed with stop reagent as indicated: […] Jurkat cells were cultured and subsequently divided into two culture dishes. In one dish the cells were treated with 1 μg/ml CAM (Camptothecin) to induce apoptosis, thereby leading to the formation of mono and oligonucleosomes, the target antigen. After an incubation period of 4 hours the cells of both dishes were harvested separately by centrifugation, lysed by the detergent contained in the Cell Death Detection ELISA Plus (Roche Diagnostics GmbH, Mannheim, Germany; Catalog No. 1920685), and frozen. The mono and oligonucleosomes consisting of DNA and histones H2A, H2B, H3 and H4 were detected in thawed cell homogenate by way of a sandwich ELISA. Antigen was captured with a first monoclonal antibody against histone from the Cell Death Detection ELISA Plus kit. The antibody was coated onto the walls of a 96-well microplate. The detection antibody was a DNA-specific polyclonal antibody conjugated with horseradish peroxidase. Non-induced and CAM-induced Jurkat cells yielded low and high amounts of target antigen, thereby leading to low and high absolute amounts of horseradish peroxidase enzymatic activity in the respective wells. Into each well of the 96-well microplate an aliquot of 100 μl of ABTS Solution (Roche Diagnostics GmbH, Mannheim, Germany; Roche Applied Science, product no. 11684302001) was added. After an incubation for 8 minutes at room temperature, 100 μl of either distilled water or a stop reagent as indicated in the legend to FIG. 1 was added.

[3] = test system: horseradish peroxidase (HRP); assay: Inhibition of ABTS turnover catalyzed by a high amount of HRP (sandwich ELISA, CAM-induced Jurkat cell lysate); assay type: biochemical, horseradish (Armoracia rusticana)
Protocol: FIG. 2, A and B: inhibition of ABTS turnover catalyzed by a high amount of HRP detection of a high amount of mono- and oligosomes in Jurkat cells; further details are given in Example 1. All other designations are the same as in FIG. 1. Jurkat cells were cultured and subsequently divided into two culture dishes. In one dish the cells were treated with 1 μg/ml CAM (Camptothecin) to induce apoptosis, thereby leading to the formation of mono and oligonucleosomes, the target antigen. After an incubation period of 4 hours the cells of both dishes were harvested separately by centrifugation, lysed by the detergent contained in the Cell Death Detection ELISA Plus (Roche Diagnostics GmbH, Mannheim, Germany; Catalog No. 1920685), and frozen. The mono and oligonucleosomes consisting of DNA and histones H2A, H2B, H3 and H4 were detected in thawed cell homogenate by way of a sandwich ELISA. Antigen was captured with a first monoclonal antibody against histone from the Cell Death Detection ELISA Plus kit. The antibody was coated onto the walls of a 96-well microplate. The detection antibody was a DNA-specific polyclonal antibody conjugated with horseradish peroxidase. Non-induced and CAM-induced Jurkat cells yielded low and high amounts of target antigen, thereby leading to low and high absolute amounts of horseradish peroxidase enzymatic activity in the respective wells. […]

HRP [4] = assay: Inhibition of 1 mU of HRP activity using acidified SDS solution as stop reagent (ABTS); assay type: biochemical, horseradish (Armoracia rusticana); settings: acidification of the reaction mixture to pH about 2.5 to 4.2; SDS final concentration between 0.25% and 2.5% weight by volume
Protocol: A solution of 5% [w/v] sodium dodecyl sulfate acidified with 0.25 M hydrochloric acid was used as a stop reagent to inhibit 1 mU peroxidase enzymatic activity of HRP. […] 100 μl of stop reagent were added.
Another experiment was performed in which two different SDS concentrations, 5% and 0.5% [w/v] in an acidified solution were compared.

[5] = Table 2b, 6 min, stop reagent added after 8 min incubation
[6] = Table 2b, 9 min, stop reagent added after 8 min
[7] = Table 2b, 15 min, stop reagent added after 8 min
[8] = Table 2b, 30 min, stop reagent added after 8 min
[9] = Table 2b, 45 min, stop reagent added after 8 min
[10] = Table 2b, 60 min, stop reagent added after 8 min
[11] = Table 2b, 180 min, stop reagent added after 8 min

Structure (SMILES)	Decoloration of the dye (HRP [1]; ABTS)	Absorbance at 405 nm (HRP [1]; [5])	Absorbance at 405 nm (HRP [1]; [6])	Absorbance at 405 nm (HRP [1]; [7])	Absorbance at 405 nm (HRP [1]; [8])	Absorbance at 405 nm (HRP [1]; [9])	Absorbance at 405 nm (HRP [1]; [10])	Absorbance at 405 nm (HRP [1]; [11])	Inhibition of the reaction (FIG. 1) [2]	other results
N#C[S-].[K+] [(xii), KSCN]	decoloration of the dye	1.179	1.207	1.290	1.201	1.086	0.989	0.849	–	–
NC(=O)C(=O)[O-].[Na+] [(xi), Sodium Oxamate]	–	1.182	1.776	2.525	3.091	3.097	3.095	2.865	–	–
[Cl][Ni][Cl] [(ix), Nickel (II) chloride]	–	1.175	2.241	2.999	3.719	3.999	3.715	3.999	–	–
O=S(=O)(O)O [sulfuric acid]	–	–	–	–	–	–	–	–	complete inhibition	–
[Na+].[OH-] [(xiii), NaOH]	decoloration of the dye	–	–	–	–	–	–	–	–	Absorbance at 405 nm (HRP [1]; Table 2a, 6 min, stop reagent added after 8 min incubation): 1.036; Absorbance at 405 nm (HRP [1]; Table 2a, 9 min, stop reagent added after 8 min): 0.878; Absorbance at 405 nm (HRP [1]; Table 2a, 15 min, stop reagent added after 8 min): 0.027; Absorbance at 405 nm (HRP [1]; Table 2a, 30 min, stop reagent added after 8 min): 0.027; Absorbance at 405 nm (HRP [1]; Table 2a, 45 min, stop reagent added after 8 min): 0.027; Absorbance at 405 nm (HRP [1]; Table 2a, 60 min, stop reagent added after 8 min): 0.027; Absorbance at 405 nm (HRP [1]; Table 2a, 180 min, stop reagent added after 8 min): 0.026
O=C(O)C(=O)O [oxalic acid]	–	–	–	–	–	–	–	–	complete inhibition	Inhibition of the high amount of HRP activity (FIG. 2) [3]: not able to inhibit completely
CCCCCCCCCCCCOS(=O)(=O)[O-].[Na+] [SDS, sodium dodecyl sulfate]	–	–	–	–	–	–	–	–	complete inhibition	Inhibition of the high amount of HRP activity (FIG. 2) [3]: not able to inhibit completely; Inhibiting peroxidase enzymatic activity (in words) (HRP [4]): very effective
[F-].[Na+] [(viii), NaF]	–	1.176	1.343	1.424	1.572	1.721	1.818	2.107	–	Inhibition of HRP (in words) (HRP [1]; ABTS): affected inhibition, however only partially
[Na+].[Na+].[Na+].[O]=[V]([O-])([O-])[O-] [(vii), Sodium orthovanadate]	decoloration of the dye	1.173	0.115	0.096	0.089	0.088	0.092	0.100	–	–
